# Assay results as given in patent US8933079B2, “Pyridone and pyridazinone derivatives as anti-obesity agents” (Boehringer Ingelheim International GmbH, priority 2012, dated 2015).
# Biological target: hMCH-1R (Homo sapiens (Human), UniProt Q99705)
# Assay: MCH-1 receptor binding test (125I-MCH binding to hMCH-1R transfected cell membranes)
# Conditions: 125I-MCH on hMCH-1R membranes; read-out: KD value of the radioligand
# Description: Res Commun. […] After the incubation the reaction is filtered using a cell harvester through 0.5% PEI treated fibreglass filters (GF/B, Unifilter Packard). The membrane-bound radioactivity retained on the filter is then determined after the addition of scintillator substance (Packard Microscint 20) in a measuring device (TopCount of Packard). […] The analysis of the concentration binding curve is carried out on the assumption of one receptor binding site.
# hMCH-1R, sequence (Q99705 whole entry): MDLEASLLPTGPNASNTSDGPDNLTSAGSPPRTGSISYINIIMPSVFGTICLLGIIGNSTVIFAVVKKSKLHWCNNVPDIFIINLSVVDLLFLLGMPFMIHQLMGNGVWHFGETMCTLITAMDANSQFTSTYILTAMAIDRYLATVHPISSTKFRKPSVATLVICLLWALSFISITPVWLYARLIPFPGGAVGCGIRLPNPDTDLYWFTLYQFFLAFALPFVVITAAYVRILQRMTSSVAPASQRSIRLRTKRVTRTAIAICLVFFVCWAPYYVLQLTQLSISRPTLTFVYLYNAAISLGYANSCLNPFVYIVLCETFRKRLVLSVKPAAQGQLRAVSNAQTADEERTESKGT
row,SMILES,Kd
1,"CSCC[C@@H]1NC(=O)[C@@H](NC(=O)[C@H](CCCNC(=N)N)NC(=O)[C@H](CC(C)C)NC(=O)[C@H](CCSC)NC(=O)[C@H](CC(=O)O)NC(=O)[C@H](Cc2ccccc2)NC(=O)[C@@H](N)CC(=O)O)CSSC[C@@H](C(=O)N[C@@H](Cc2c[nH]c3ccccc23)C(=O)N[C@@H](CCC(N)=O)C(=O)N[C@H](C(=O)O)C(C)C)NC(=O)[C@@H]2CCCN2C(=O)[C@H](CCCNC(=N)N)NC(=O)[C@H](Cc2ccc(O)c(I)c2)NC(=O)[C@H](C(C)C)NC(=O)[C@H](CCCNC(=N)N)NC(=O)CNC(=O)[C@H](CC(C)C)NC1=O [^125I-MCH, reference compound]",0.156 nM

# Same assay, conditions: competition with 100 pM 125I-MCH, membranes of CHO/Galpha16 cells stably transfected with hMCH-1R
row,SMILES,IC50
1,"Cc1cc(CN(C)C)ccc1C(=O)Cn1ccc(OCc2ccccc2)cc1=O [Example 1.8, 4-Benzyloxy-1-[2-(4-dimethylaminomethyl-2-methyl-phenyl)-2-oxo-ethyl]-1H-pyridin-2-one]",17 nM
2,"Cc1cc(CN2CCC(O)CC2)ccc1C(=O)Cn1ncc(OCc2ccc(Cl)cn2)cc1=O [Example 7.14, 5-(5-Chloro-pyridin-2-ylmethoxy)-2-{2-[4-(4-hydroxy-piperidin-1-ylmethyl)-2-methyl-phenyl]-2-oxo-ethyl}-2H-pyridazin-3-one]",30 nM
3,"Cc1cc(CN2CCCC2)ccc1C(=O)Cn1ncc(OCc2ccc(Cl)cn2)cc1=O [Example 7.15, 5-(5-Chloro-pyridin-2-ylmethoxy)-2-[2-(2-methyl-4-pyrrolidin-1-ylmethyl-phenyl)-2-oxo-ethyl]-2H-pyridazin-3-one]",19 nM
4,"Cc1cc(CN(C)C)ccc1C(=O)Cn1ncc(OCc2ccc(Cl)cn2)cc1=O [Example 7.16, 5-(5-Chloro-pyridin-2-ylmethoxy)-2-[2-(4-dimethylaminomethyl-2-methyl-phenyl)-2-oxo-ethyl]-2H-pyridazin-3-one]",24 nM
5,"Cc1cc(CN2CCNCC2)ccc1C(=O)Cn1ncc(OCc2ccc(Cl)cn2)cc1=O [Example 7.17, 5-(5-Chloro-pyridin-2-ylmethoxy)-2-[2-(2-methyl-4-piperazin-1-ylmethyl-phenyl)-2-oxo-ethyl]-2H-pyridazin-3-one]",83 nM
6,"Cc1cc(CN2CC[C@@H](O)C2)ccc1C(=O)Cn1ncc(OCc2ccc(Br)cn2)cc1=O [Example 8.1, (R)-5-(5-Bromo-pyridin-2-ylmethoxy)-2-{2-[4-(3-hydroxy-pyrrolidin-1-ylmethyl)-2-methyl-phenyl]-2-oxo-ethyl}-2H-pyridazin-3-one]",22 nM
7,"Cc1cc(CN2CC(O)C2)ccc1C(=O)Cn1ncc(OCc2ccc(Br)cn2)cc1=O [Example 8.2, 5-(5-Bromo-pyridin-2-ylmethoxy)-2-{2-[4-(3-hydroxy-azetidin-1-ylmethyl)-2-methyl-phenyl]-2-oxo-ethyl}-2H-pyridazin-3-one]",19 nM
8,Cc1cc(CN2CCC[C@H](O)C2)ccc1C(=O)Cn1ncc(OCc2ccc(Br)cn2)cc1=O [Example 8.4],24 nM
9,Cc1cc(CN2CCC(C)(O)C2)ccc1C(=O)Cn1ncc(OCc2ccc(Br)cn2)cc1=O (stereo not shown) [Example 8.5],18 nM
10,"Cc1cc(CN2CCC[C@@H](O)C2)ccc1C(=O)Cn1ncc(OCc2ccc(Br)cn2)cc1=O [Example 8.6, (R)-5-(5-Bromo-pyridin-2-ylmethoxy)-2-{2-[4-(3-hydroxy-piperidin-1-ylmethyl)-2-methyl-phenyl]-2-oxo-ethyl}-2H-pyridazin-3-one]",21 nM
11,"Cc1cc(CN2CCCC[C@@H]2CO)ccc1C(=O)Cn1ncc(OCc2ccc(Br)cn2)cc1=O [Example 8.7, (R)-5-(5-Bromo-pyridin-2-ylmethoxy)-2-{2-[4-(2-hydroxymethyl-piperidin-1-ylmethyl)-2-methyl-phenyl]-2-oxo-ethyl}-2H-pyridazin-3-one]",20 nM
12,"CCNCc1ccc(C(=O)Cn2ncc(OCc3ccc(Br)cn3)cc2=O)c(C)c1 [Example 8.8, 5-(5-Bromo-pyridin-2-ylmethoxy)-2-[2-(4-ethylaminomethyl-2-methyl-phenyl)-2-oxo-ethyl]-2H-pyridazin-3-one]",17 nM
13,"Cc1cc(CN2CCC(O)CC2)ccc1C(=O)Cn1ncc(OCc2ccc(Br)cn2)cc1=O [Example 8.9, 5-(5-Bromo-pyridin-2-ylmethoxy)-2-{2-[4-(4-hydroxy-piperidin-1-ylmethyl)-2-methyl-phenyl]-2-oxo-ethyl}-2H-pyridazin-3-one]",18 nM
14,"CNCc1ccc(C(=O)Cn2ncc(OCc3ccc(Br)cn3)cc2=O)c(C)c1 [Example 8.10, 5-(5-Bromo-pyridin-2-ylmethoxy)-2-[2-(2-methyl-4-methylaminomethyl-phenyl)-2-oxo-ethyl]-2H-pyridazin-3-one]",25 nM
15,Cc1cc(CN2CCC[C@H]2CO)ccc1C(=O)Cn1ncc(OCc2ccc(Br)cn2)cc1=O [Example 8.11],21 nM
16,"COc1ccc(COc2cnn(CC(=O)c3ccc(CN4CCC(O)CC4)cc3C)c(=O)c2)nc1 [Example 9.2, 2-{2-[4-(4-Hydroxy-piperidin-1-ylmethyl)-2-methyl-phenyl]-2-oxo-ethyl}-5-(5-methoxy-pyridin-2-ylmethoxy)-2H-pyridazin-3-one]",34 nM
17,"COc1ccc(COc2cnn(CC(=O)c3ccc(CN4CCCC4)cc3C)c(=O)c2)nc1 [Example 9.3, 5-(5-Methoxy-pyridin-2-ylmethoxy)-2-[2-(2-methyl-4-pyrrolidin-1-ylmethyl-phenyl)-2-oxo-ethyl]-2H-pyridazin-3-one]",25 nM
18,"CNCc1ccc(C(=O)Cn2ncc(OCc3ccc(OC)cn3)cc2=O)c(C)c1 [Example 9.4, 5-(5-Methoxy-pyridin-2-ylmethoxy)-2-[2-(2-methyl-4-methylaminomethyl-phenyl)-2-oxo-ethyl]-2H-pyridazin-3-one]",20 nM
19,"CCNCc1ccc(C(=O)Cn2ncc(OCc3ccc(OC)cn3)cc2=O)c(C)c1 [Example 9.5, 2-[2-(4-Ethylaminomethyl-2-methyl-phenyl)-2-oxo-ethyl]-5-(5-methoxy-pyridin-2-ylmethoxy)-2H-pyridazin-3-one]",24 nM
20,"COc1ccc(COc2cnn(CC(=O)c3ccc(C(C)N(C)C)cc3C)c(=O)c2)nc1 (stereo not shown) [Example 10.1, 2-{2-[4-(1-Dimethylamino-ethyl)-2-methyl-phenyl]-2-oxo-ethyl}-5-(5-methoxy-pyridin-2-ylmethoxy)-2H-pyridazin-3-one]",20 nM
21,"CNC(C)c1ccc(C(=O)Cn2ncc(OCc3ccc(OC)cn3)cc2=O)c(C)c1 (stereo not shown) [Example 10.2, 5-(5-Methoxy-pyridin-2-ylmethoxy)-2-{2-[2-methyl-4-(1-methylamino-ethyl)-phenyl]-2-oxo-ethyl}-2H-pyridazin-3-one]",22 nM
22,"COc1ccc(COc2ccn(CC(=O)c3ccc(CN4CCC(O)CC4)cc3C)c(=O)c2)nc1 [Example 11.1, 1-{2-[4-(4-Hydroxy-piperidin-1-ylmethyl)-2-methyl-phenyl]-2-oxo-ethyl}-4-(5-methoxy-pyridin-2-ylmethoxy)-1H-pyridin-2-one]",53 nM
23,COc1ccc(COc2ccn(CC(=O)c3ccc(CN(C)C)cc3C)c(=O)c2)nc1 [Example 11.2],57 nM
24,COc1ccc(COc2ccn(CC(=O)c3ccc(CN4CCCC4)cc3C)c(=O)c2)nc1 [Example 11.3],26 nM
25,CCNCc1ccc(C(=O)Cn2ccc(OCc3ccc(OC)cn3)cc2=O)c(C)c1 [Example 11.4],54 nM

# Test system: human hepatocytes
# Assay: Metabolic degradation in human hepatocytes (intrinsic clearance)
# Format: in vitro ADME
# Conditions: human hepatocyte suspension, 1 μM test compound, 5% human serum, 6 h
# Description: Determination of Metabolic Degradation in Human Hepatocytes for Compounds of the Invention
# The metabolic degradation of the test compound is determined in a hepatocyte suspension. Hepatocytes (typically cryopreserved) are incubated in an appropriate buffer system (e.g. Dulbecco's modified eagle medium plus 3.5 μg glucagon/500 mL, 2.5 mg insulin/500 mL and 3.75 mg/500 mL hydrocortison) containing 5% human serum.
# Following a (typically) 30 min preincubation in an incubator (37° C., 10% CO2), 5 μl of test compound solution (80 μM; from 2 mM in DMSO stock solution diluted 1:25 with medium) are added into 395 μl hepatocyte suspension (cell density in the range 0.25-5 Mio cells/mL, typically 1 Mio cells/mL; final concentration of test compound 1 μM, final DMSO concentration 0.05%). The cells are incubated for six hours (incubator, orbital shaker) and samples (25 μl) are taken at 0, 0.5, 1, 2, 4 and 6 hours. Samples are transferred into acetonitrile and pelleted by centrifugation (5 min). The supernatant is transferred to a new 96-deepwell plate, evaporated under nitrogen and resuspended.
# Decline of parent compound is analyzed by HPLC-MS/MS.
# CLint is calculated as follows CL_[…]=Dose/AUC=(CO/CD)/(AUD+clast/k)×1000/60. C0: initial concentration in the incubation [μM], CD: cell density of vital cells [10e6 cells/mL], AUD: area under the data [μM×h], clast: concentration of last data point [μM], k: slope of the regression line for parent decline [h−1].
row,SMILES,CLint
1,"Cc1cc(CN(C)C)ccc1C(=O)Cn1ccc(OCc2ccccc2)cc1=O [Example 1.8, 4-Benzyloxy-1-[2-(4-dimethylaminomethyl-2-methyl-phenyl)-2-oxo-ethyl]-1H-pyridin-2-one]",3.9 μL/min/10e6 cells
2,"COc1ccc(COc2cnn(CC(=O)c3ccc(CN(C)C)cc3)c(=O)c2)nc1 [Example 9.1c, 2-[2-(4-Dimethylaminomethyl-phenyl)-2-oxo-ethyl]-5-(5-methoxy-pyridin-2-ylmethoxy)-2H-pyridazin-3-one, reference compound]",27 μL/min/10e6 cells
3,"CN(C)Cc1ccc(C(=O)Cn2ccc(OCc3ccc(Cl)cn3)cc2=O)cc1 [Example 9.2 in WO2009/103478, reference compound]",68.8 μL/min/10e6 cells
4,"CN(C)Cc1ccc(C(=O)Cn2ccc(OCc3ccc(Br)cn3)cc2=O)cc1 [Example 11.2 in WO2009/103478, reference compound]",66.1 μL/min/10e6 cells
5,"CN(C)Cc1ccc(C(=O)Cn2ncc(OCc3ccc(Br)cn3)cc2=O)cc1 [Example 12.2 in WO2009/103478, reference compound]",57.6 μL/min/10e6 cells
6,"CN(C)Cc1ccc(C(=O)Cn2ccc(OCc3ccccc3)cc2=O)cc1 [Example 29.8 in WO2008/22979, reference compound]",24.3 μL/min/10e6 cells
7,"CN(C)Cc1ccc(C(=O)Cn2ncc(OCc3ccccc3)cc2=O)cc1 [Example 32.7 in WO2008/22979, reference compound]",16.8 μL/min/10e6 cells
8,"CN(C)Cc1ccc(C(=O)Cn2ncc(OCc3ccc(F)cn3)cc2=O)cc1 [Example 33.5 in WO2008/22979, reference compound]",10.0 μL/min/10e6 cells
